{"source": "patent US11413239B2", "about": "“Pharmaceutical composition of tapentadol for nasal administration” (Torrent Pharmaceuticals Ltd., priority 2011, dated 2022)", "key": {"[1]": {"conditions": "cited from earlier work"}, "[2]": {"test": "Crystal formation in concentrated tapentadol solution on storage", "assay_type": "physicochemical", "conditions": "increased concentration of tapentadol in solution, stored for more than 3 days", "excerpt": "This makes the formulation non-homogeneous and therefore non-suitable for nasal administration. This crystal growth may further leads to altered therapeutic effect of the drug. Present invention overcomes this problem by providing a composition, wherein no such crystal growth is observed in the composition comprising high concentration of drug, when stored for longer duration."}}}
{"smiles": "CC[C@@H](c1cccc(O)c1)[C@@H](C)CN(C)C.Cl", "note": "[Tapentadol, 3-[(1R,2R)-3-(dimethylamino)-1-ethyl-2-methylpropyl]phenol]", "values": [{"measurement": "clearance", "setting": "[1]; Eur. J. Drug Met and Pharmacokinetics 2007, 32, 163-169", "value": "1468.+−.122 mL/min"}, {"measurement": "time of maximum serum concentration", "setting": "[1]; after oral dosing", "value": "around 1.25 hours"}, {"measurement": "parent compound metabolized", "setting": "[1]; given orally", "value": "About 97%"}, {"measurement": "time to absorb after administration", "setting": "[1]; oral formulations", "value": "at least 45 minutes"}, {"measurement": "crystal formation on storage", "setting": "[2]", "value": "formation of crystals"}]}
